Measured values reported in ChEMBL document CHEMBL3885881, “DrugMatrix”.

Species on record: Rattus norvegicus
Experiment: DrugMatrix - Regimen: Daily Repeat
Type: toxicity, organism-based, Sprague-Dawley
Parameters: regimen Daily Repeat, gender Male, age 6-8 weeks
Details: in vivo, po, route oral GAVAGE, […]; for ABSOLUTE BASOPHIL / BASOPHIL / EOSINOPHIL / ERYTHROCYTE COUNT / HEMATOCRIT / HEMOGLOBIN / LEUKOCYTE COUNT / LYMPHOCYTE / MEAN CORPUSCULAR HEMOGLOBIN / MEAN CORPUSCULAR HEMOGLOBIN CONCENTRATION / MEAN CORPUSCULAR VOLUME / MONOCYTE / NEUTROPHIL / PLATELET COUNT: tissue Blood
[1] = 30 mg/kg, 120 h, tissue Plasma, dose level Low, time 5 day
[2] = 35 mg/kg, 72 h, dose level Low, time 3 day
[3] = 35 mg/kg, 72 h, tissue Plasma, dose level Low, time 3 day
[4] = 35 mg/kg, 120 h, dose level Low, time 5 day
[5] = 35 mg/kg, 120 h, tissue Plasma, dose level Low, time 5 day
[6] = 400 mg/kg, 72 h, dose level High, time 3 day
[7] = 400 mg/kg, 72 h, tissue Plasma, dose level High, time 3 day
[8] = 400 mg/kg, 120 h, dose level High, time 5 day
[9] = 400 mg/kg, 120 h, tissue Plasma, dose level High, time 5 day

In the case of `Cc1ccc(-c2cc(C(F)(F)F)nn2-c2ccc(S(N)(=O)=O)cc2)cc1` [CELECOXIB], the ALBUMIN [1] is reported as 3.93 G/DL, the “ALKALINE PHOSPHATASE” value [1] is reported as 354.33 u/L and the “ASPARTATE AMINOTRANSFERASE” value [1] is reported as 82.67 u/L. The “BLOOD UREA NITROGEN” value [1] was 10.67 mg/dL, the “CARBON DIOXIDE” value [1] was 25 mmol/L and the CHLORIDE [1] was 101 MEQ/L. The CHOLESTEROL [1] was 56.33 mg/dL, the “CREATINE PHOSPHOKINASE” value [1] was 247 u/L and the CREATININE [1] was 0.12 mg/dL. The GLUCOSE [1] was 191.67 mg/dL, the “LACTATE DEHYDROGENASE” value [1] was 107 u/L and the LIPASE [1] was 6.33 u/L. It also gave a PHOSPHORUS [1] of 12.27 mg/dL, a POTASSIUM [1] of 5.29 MEQ/L and an SODIUM [1] of 142.9 MEQ/L. For the same compound, the “TOTAL BILIRUBIN” value [1] was 0.2 mg/dL, the “TOTAL PROTEIN” value [1] was 5.8 G/DL and the “URIC ACID” value [1] was 1.67 mg/dL. The ABSOLUTE BASOPHIL [2] was 23.3 cells/µL, the BASOPHIL [2] was 0.2% and the EOSINOPHIL [2] was 0.57%. For the same compound, the “ERYTHROCYTE COUNT” value [2] was 6.93 x10E6/uL, the HEMATOCRIT [2] was 43.8% and the HEMOGLOBIN [2] was 14.23 G/DL. For the same compound, the “LEUKOCYTE COUNT” value [2] was 11.06 x10E3/uL, the LYMPHOCYTE [2] was 78.9% and the “MEAN CORPUSCULAR HEMOGLOBIN” value [2] was 20.57 pg. For the same compound, the “MEAN CORPUSCULAR HEMOGLOBIN CONCENTRATION” value [2] was 32.53 G/DL, the “MEAN CORPUSCULAR VOLUME” value [2] was 63.27 fL and the MONOCYTE [2] was 2.2%. The NEUTROPHIL [2] was 16.8%, the “PLATELET COUNT” value [2] was 1233.67 x10E3/uL and the “ALANINE AMINOTRANSFERASE” value [3] was 48 u/L. The ALBUMIN [3] was 3.53 G/DL, the “ALKALINE PHOSPHATASE” value [3] was 409.67 u/L and the “ASPARTATE AMINOTRANSFERASE” value [3] was 65 u/L. The “BLOOD UREA NITROGEN” value [3] was 10.33 mg/dL, the CHLORIDE [3] was 105.67 MEQ/L and the CHOLESTEROL [3] was 68.67 mg/dL. The “CREATINE PHOSPHOKINASE” value [3] was 192.67 u/L, the CREATININE [3] was 0.37 mg/dL and the GLUCOSE [3] was 180 mg/dL. It also gave a PHOSPHORUS [3] of 12.47 mg/dL, a POTASSIUM [3] of 6.47 MEQ/L and an SODIUM [3] of 146.67 MEQ/L. The “TOTAL BILIRUBIN” value [3] was 0.43 mg/dL, the “TOTAL PROTEIN” value [3] was 5.63 G/DL and the ABSOLUTE BASOPHIL [4] was 56.7 cells/µL. The BASOPHIL [4] was 0.5%, the EOSINOPHIL [4] was 0.17% and the “ERYTHROCYTE COUNT” value [4] was 6.92 x10E6/uL. For the same compound, the HEMATOCRIT [4] was 43.47%, the HEMOGLOBIN [4] was 14.1 G/DL and the “LEUKOCYTE COUNT” value [4] was 12.56 x10E3/uL. The LYMPHOCYTE [4] was 82.3%, the “MEAN CORPUSCULAR HEMOGLOBIN” value [4] was 20.4 pg and the “MEAN CORPUSCULAR HEMOGLOBIN CONCENTRATION” value [4] was 32.43 G/DL. For the same compound, the “MEAN CORPUSCULAR VOLUME” value [4] was 62.8 fL, the MONOCYTE [4] was 1.9% and the NEUTROPHIL [4] was 13.9%. The “PLATELET COUNT” value [4] was 1178.33 x10E3/uL, the “ALANINE AMINOTRANSFERASE” value [5] was 42 u/L and the ALBUMIN [5] was 3.57 G/DL. For the same compound, the “ALKALINE PHOSPHATASE” value [5] was 324.67 u/L, the “ASPARTATE AMINOTRANSFERASE” value [5] was 63.67 u/L and the “BLOOD UREA NITROGEN” value [5] was 9.67 mg/dL. The CHLORIDE [5] was 103 MEQ/L, the CHOLESTEROL [5] was 76.67 mg/dL and the “CREATINE PHOSPHOKINASE” value [5] was 179.33 u/L. For the same compound, the CREATININE [5] was 0.37 mg/dL, the GLUCOSE [5] was 187.33 mg/dL and the PHOSPHORUS [5] was 11.8 mg/dL. For the same compound, the POTASSIUM [5] was 6.73 MEQ/L, the SODIUM [5] was 146 MEQ/L and the “TOTAL BILIRUBIN” value [5] was 0.33 mg/dL. For the same compound, the “TOTAL PROTEIN” value [5] was 5.9 G/DL, the ABSOLUTE BASOPHIL [6] was 30 cells/µL and the BASOPHIL [6] was 0.27%. The EOSINOPHIL [6] was 0.6%, the “ERYTHROCYTE COUNT” value [6] was 6.71 x10E6/uL and the HEMATOCRIT [6] was 42.57%. For the same compound, the HEMOGLOBIN [6] was 14.27 G/DL, the “LEUKOCYTE COUNT” value [6] was 12.22 x10E3/uL and the LYMPHOCYTE [6] was 70.53%. The “MEAN CORPUSCULAR HEMOGLOBIN” value [6] was 21.27 pg, the “MEAN CORPUSCULAR HEMOGLOBIN CONCENTRATION” value [6] was 33.53 G/DL and the “MEAN CORPUSCULAR VOLUME” value [6] was 63.47 fL. The MONOCYTE [6] was 3.27%, the NEUTROPHIL [6] was 24.33% and the “PLATELET COUNT” value [6] was 1571.33 x10E3/uL. The “ALANINE AMINOTRANSFERASE” value [7] was 62 u/L, the ALBUMIN [7] was 3.4 G/DL and the “ALKALINE PHOSPHATASE” value [7] was 437.67 u/L. For the same compound, the “ASPARTATE AMINOTRANSFERASE” value [7] was 74.67 u/L, the “BLOOD UREA NITROGEN” value [7] was 9.33 mg/dL and the CHLORIDE [7] was 106.67 MEQ/L. The CHOLESTEROL [7] was 88.33 mg/dL, the “CREATINE PHOSPHOKINASE” value [7] was 191.67 u/L and the CREATININE [7] was 0.33 mg/dL. For the same compound, the GLUCOSE [7] was 177.33 mg/dL, the PHOSPHORUS [7] was 12.6 mg/dL and the POTASSIUM [7] was 6.63 MEQ/L. For the same compound, the SODIUM [7] was 145 MEQ/L, the “TOTAL BILIRUBIN” value [7] was 0.33 mg/dL and the “TOTAL PROTEIN” value [7] was 5.53 G/DL. It also gave an ABSOLUTE BASOPHIL [8] of 190 cells/µL, a BASOPHIL [8] of 1.28% and an EOSINOPHIL [8] of 0.3%. For the same compound, the “ERYTHROCYTE COUNT” value [8] was 6.61 x10E6/uL, the HEMATOCRIT [8] was 42.7% and the HEMOGLOBIN [8] was 13.26 G/DL. The “LEUKOCYTE COUNT” value [8] was 18.19 x10E3/uL, the LYMPHOCYTE [8] was 68.98% and the “MEAN CORPUSCULAR HEMOGLOBIN” value [8] was 20.16 pg. The “MEAN CORPUSCULAR HEMOGLOBIN CONCENTRATION” value [8] was 31.14 G/DL, the “MEAN CORPUSCULAR VOLUME” value [8] was 64.7 fL and the MONOCYTE [8] was 2.54%. For the same compound, the NEUTROPHIL [8] was 25.24%, the “PLATELET COUNT” value [8] was 1512.2 x10E3/uL and the “ALANINE AMINOTRANSFERASE” value [9] was 41.6 u/L. For the same compound, the ALBUMIN [9] was 3.44 G/DL, the “ALKALINE PHOSPHATASE” value [9] was 451.2 u/L and the “ASPARTATE AMINOTRANSFERASE” value [9] was 64.8 u/L. For the same compound, the “BLOOD UREA NITROGEN” value [9] was 11.2 mg/dL, the CHLORIDE [9] was 105.8 MEQ/L and the CHOLESTEROL [9] was 91.6 mg/dL. The “CREATINE PHOSPHOKINASE” value [9] was 166.4 u/L, the CREATININE [9] was 0.34 mg/dL and the GLUCOSE [9] was 185.8 mg/dL. It also gave a PHOSPHORUS [9] of 12.94 mg/dL, a POTASSIUM [9] of 7.1 MEQ/L and an SODIUM [9] of 151 MEQ/L. For the same compound, the “TOTAL BILIRUBIN” value [9] was 0.2 mg/dL and the “TOTAL PROTEIN” value [9] was 5.9 G/DL.
